target: PDE V (Homo sapiens, UniProt O76074); test: PDE V inhibition (PDE V IC50); assay type: biochemical

Row | SMILES | IC50 [nM]
1 | COc1ccc(Cn2c(NC3(CO)CCCC3)nc3c2c(=O)n(C)c(=O)n3C)cc1 [Compound 13] | 15 to 100
2 | CCn1c(=O)c2c(nc(N[C@@H]3CCC[C@@H]3O)n2Cc2ccccc2)n(CC)c1=O [Compound 14] | 15 to 100
3 | Cn1c(=O)c2c(nc(NC3CCCC3)n2Cc2ccccc2)n(C)c1=O [Compound 15] | 15 to 100
4 | Cn1c(=O)c2c(nc(NC3CCCCC3)n2Cc2ccccc2)n(C)c1=O [Compound 16] | 15 to 100
5 | COc1ccc(Cn2c(N[C@@H]3CCC[C@@H]3O)nc3c2c(=O)n(C)c(=O)n3CC(C)C)cc1 [Compound 17] | 15 to 100
6 | COc1ccc(Cn2c(NC3(CO)CCCC3)nc3c2c(=O)n(C)c(=O)n3CC(C)C)cc1 [Compound 18] | 15 to 100
7 | COc1ccc(Cn2c(=O)c3c(nc(NC4CCCCC4)n3Cc3ccc(OC)cc3)n(C)c2=O)cc1 [Compound 21] | 5 to 10
8 | COc1ccc(Cn2c(=O)c3c(nc(NC4CCCC4)n3Cc3ccc(OC)cc3)n(C)c2=O)cc1 [Compound 22] | 5 to 10
9 | CCn1c(=O)c2c(nc(NC3CCCCC3)n2Cc2ccc(OC)cc2)n(C)c1=O [Compound 23] | 10 to 15
10 | CCn1c(=O)c2c(nc(NC3CCCC3)n2Cc2ccc(OC)cc2)n(C)c1=O [Compound 24] | 10 to 15
11 | CCn1c(=O)c2c(nc(NC3(CO)CC=CC3)n2Cc2ccc(OC)cc2)n(C)c1=O [Compound 25] | 15 to 100
12 | CCn1c(=O)c2c(nc(NC3CCCCC3)n2Cc2ccccc2)n(CC)c1=O [Compound 29] | 10 to 15
13 | COc1ccc(Cn2c(NC3CCCC3)nc3c2c(=O)n(C)c(=O)n3CC(C)C)cc1 [Compound 30] | 15 to 100
14 | COc1ccc(Cn2c(NC3CCCCC3)nc3c2c(=O)n(C)c(=O)n3CC(C)C)cc1 [Compound 31] | 15 to 100
15 | COc1ccc(Cn2c(NC3CCCC3)nc3c2c(=O)n(C)c(=O)n3C)cc1 [Compound 32] | 15 to 100
16 | COc1ccc(Cn2c(NC3CCCCC3)nc3c2c(=O)n(C)c(=O)n3C)cc1 [Compound 33] | 10 to 15
17 | COc1ccc(Cn2c(NC3(CO)CC=CC3)nc3c2c(=O)n(C)c(=O)n3C)cc1 [Compound 34] | 10 to 15
18 | Cn1c(=O)c2c(nc(NC3CCCC3)n2Cc2ccc(O)cc2)n(C)c1=O [Compound 36] | 5 to 10
19 | CCn1c(=O)c2c(nc(NC3CCCC3)n2Cc2ccc(OC)cc2)n(CC(C)C)c1=O [Compound 38] | 15 to 100
20 | CCn1c(=O)c2c(nc(NC3CCCCC3)n2Cc2ccc(OC)cc2)n(CC(C)C)c1=O [Compound 39] | 10 to 15
21 | CCn1c(=O)c2c(nc(NC3CCCC3O)n2Cc2ccc(OC)cc2)n(CC(C)C)c1=O (centres unmarked) [Compound 40] | 10 to 15

Row | SMILES | IC50 [nM]
22 | CCn1c(=O)c2c(nc(NC3(CO)CCCC3)n2Cc2ccc(OC)cc2)n(CC(C)C)c1=O [Compound 41] | 15 to 100
23 | COc1ccc(Cn2c(NC3CCC3)nc3c2c(=O)n(C)c(=O)n3C)cc1 [Compound 42] | 15 to 100
24 | COc1ccc(Cn2c(NC3CCCCCC3)nc3c2c(=O)n(C)c(=O)n3C)cc1 [Compound 43] | 15 to 100
25 | CCn1c(=O)c2c(nc(NC3CCCC3)n2Cc2ccccc2)n(CC(C)C)c1=O [Compound 55] | 15 to 100
26 | CCn1c(=O)c2c(nc(NC3CCCCC3)n2Cc2ccccc2)n(CC(C)C)c1=O [Compound 56] | 15 to 100
27 | CCn1c(=O)c2c(nc(NC3(CO)CC=CC3)n2Cc2ccccc2)n(CC(C)C)c1=O [Compound 57] | 15 to 100
28 | CCn1c(=O)c2c(nc(NC3CCCC3O)n2Cc2ccccc2)n(CC(C)C)c1=O (centres unmarked) [Compound 58] | 15 to 100
29 | CCn1c(=O)c2c(nc(NC3CCCC3)n2Cc2ccc(O)cc2)n(CC(C)C)c1=O [Compound 59] | 5 to 10
30 | CCn1c(=O)c2c(nc(NC3CCCC3)n2Cc2ccc(OC)cc2)n(CC)c1=O [Compound 60] | ≤ 5
31 | CCn1c(=O)c2c(nc(NC3CCCCC3)n2Cc2ccc(OC)cc2)n(CC)c1=O [Compound 61] | ≤ 5
32 | CCn1c(=O)c2c(nc(NC3(CO)CC=CC3)n2Cc2ccc(OC)cc2)n(CC)c1=O [Compound 62] | ≤ 5
33 | CCn1c(=O)c2c(nc(NC3CCCC3)n2Cc2ccc(O)cc2)n(CC)c1=O [Compound 63] | ≤ 5
34 | CCn1c(=O)c2c(nc(NC3CCCCC3)n2Cc2ccc(O)cc2)n(CC)c1=O [Compound 64] | ≤ 5
35 | CCn1c(=O)c2c(nc(NC3CCCCC3)n2Cc2ccc(O)cc2)n(CC(C)C)c1=O [Compound 65] | ≤ 5
36 | Cn1c(=O)c2c(nc(NC3CCC3)n2Cc2ccc(O)cc2)n(C)c1=O [Compound 66] | 5 to 10
37 | COc1ccc(Cn2c(=O)c3c(nc(NC4(CO)CC=CC4)n3Cc3ccc(OC)cc3)n(C)c2=O)cc1 [Compound 67] | ≤ 5
38 | Cn1c(=O)[nH]c(=O)c2c1nc(NC1CCCC1)n2Cc1ccc(O)cc1 [Compound 68] | 5 to 10
39 | Cn1c(=O)c2c(nc(NC3CCCCCC3)n2Cc2ccc(O)cc2)n(C)c1=O [Compound 69] | 15 to 100
40 | COc1ccc(Cn2c(NC3CCCCC3)nc3c2c(=O)[nH]c(=O)n3C)cc1 [Compound 70] | 15 to 100
41 | Cn1c(=O)[nH]c(=O)c2c1nc(NC1CCCCC1)n2Cc1ccc(O)cc1 [Compound 71] | 15 to 100

Second part, the molecule after the results:

Row | IC50 [nM] | SMILES
42 | 15 to 100 | Cn1c(=O)c2c(nc(NC3CC4CCC3C4)n2Cc2ccc(O)cc2)n(C)c1=O (centres unmarked) [Compound 77]
43 | 5 to 10 | CCn1c(=O)c2c(nc(NC3CCCCC3)n2Cc2ccc(O)cc2)n(C)c1=O [Compound 78]
44 | 15 to 100 | COc1ccc(Cn2c(N[C@@H]3CCc4ccccc43)nc3c2c(=O)n(C)c(=O)n3C)cc1 [Compound 85]
45 | 5 to 10 | CCn1c(=O)c2c(nc(NC3CCCCC3)n2Cc2ccc(OC(C)=O)cc2)n(CC)c1=O [Compound 89]
46 | 15 to 100 | CCn1c(=O)[nH]c2nc(NC3CCCCC3)n(Cc3ccc(OC)cc3)c2c1=O [Compound 92]
47 | 10 to 15 | CCn1c(=O)[nH]c2nc(NC3CCCC3)n(Cc3ccc(OC)cc3)c2c1=O [Compound 93]
48 | 10 to 15 | CCn1c(=O)[nH]c2nc(NC3CCCCC3)n(Cc3ccc(O)cc3)c2c1=O [Compound 94]
49 | 5 to 10 | CCn1c(=O)[nH]c2nc(NC3CCCC3)n(Cc3ccc(O)cc3)c2c1=O [Compound 95]
50 | 15 to 100 | CCn1c(=O)c2c(nc(NC3CCCCC3)n2Cc2ccc(C(F)(F)F)cc2)n(CC(C)C)c1=O [Compound 96]
51 | 15 to 100 | CCn1c(=O)c2c(nc(NC3CCCCC3)n2Cc2ccc(C(=O)O)cc2)n(CC)c1=O [Compound 98]
52 | 5 to 10 | CCn1c(=O)c2c(nc(NC3CCCCC3)n2Cc2ccc(C(=O)OC)cc2)n(CC)c1=O [Compound 99]
53 | 15 to 100 | CCn1c(=O)c2c(nc(NC3CCCCC3)n2Cc2ccccc2)n(CCO)c1=O [Compound 101]
54 | 10 to 15 | CCn1c(=O)c2c(nc(NC3CCCCC3)n2Cc2cc3c(cc2Cl)OCO3)n(CCO)c1=O [Compound 108]
55 | 5 to 10 | CCn1c(=O)c2c(nc(NC3CCCCC3)n2Cc2ccc(OC)c(C)c2)n(CCO)c1=O [Compound 110]
56 | 10 to 15 | CCn1c(=O)c2c(nc(N[C@@H]3CCC[C@H]3O)n2Cc2ccc(OC)c(C)c2)n(CCO)c1=O [Compound 111]
57 | 10 to 15 | CCn1c(=O)c2c(nc(NC3CCCCC3)n2Cc2ccc(O)c(C)c2)n(CCO)c1=O [Compound 112]
58 | 15 to 100 | CCn1c(=O)c2c(nc(N[C@@H]3CCC[C@H]3O)n2Cc2ccc(O)c(C)c2)n(CCO)c1=O [Compound 113]
59 | ≤ 5 | CCn1c(=O)c2c(nc(N[C@@H]3CCC[C@H]3O)n2Cc2ccc(OC)c(Br)c2)n(CCO)c1=O [Compound 114]
